Assay results: patent publication US8148388B2, “2,4 (4,6) pyrimidine derivatives” (Janssen Pharmaceutica, N.V., priority 2004, dated 2012)

Experiments:
Type in all cases: biochemical
[1] = biological target: cSRC (h) (Homo sapiens, UniProt P12931); assay: cSRC human kinase assay (glass-fiber filter); conditions: test concentration of 10^−6M; for inhibition at 1 µM: read-out: C3 score (inhibition of cSRC human)
Procedure: (§1) The in vitro inhibition of a panel of kinases was assessed using either the glass-fiber filter technology as described by Davies, S. P. et al., Biochem J. […] In the glass-fiber filter technology the activity of the kinase of interest is measured using an appropriate substrate that is incubated with the aforementioned kinase protein in the presence of (^33P) radiolabeled ATP. (^33P) Phosphorylation of the substrate is subsequently measured as radioactivity bound on a glass fiber-filter. All kinases are pre-diluted to a 10× working concentration prior to addition into the assay. The composition of the dilution buffer for each kinase is detailed below. […] The reaction is initiated by the addition of the MgATP mix. […] 10 μl of the reaction is then spotted onto a P30 filtermat and washed three times for 5 minutes in 75 mM phosphoric acid and once in methanol prior to drying and scintillation counting.

[2] = biological target: Lck (h) (Homo sapiens, UniProt P06239); assay: Lck human kinase assay (glass-fiber filter); conditions: test concentration of 10^−6M; for inhibition at 1 µM: read-out: C9 score (inhibition of Lck human)
Procedure: as §1, with “below. [table]” for “below.”

[3] = biological target: Flt3 (h) (Homo sapiens, UniProt P36888); assay: Flt3 human kinase assay (glass-fiber filter); conditions: test concentration of 10^−6M; for inhibition at 1 µM: read-out: C6 score (inhibition of Flt3 human)
Procedure: (§2) The in vitro inhibition of a panel of kinases was assessed using either the glass-fiber filter technology as described by Davies, S. P. et al., Biochem J. (2000), 351; p. 95-105.
(§3) In the glass-fiber filter technology the activity of the kinase of interest is measured using an appropriate substrate that is incubated with the aforementioned kinase protein in the presence of (^33P) radiolabeled ATP. (^33P) Phosphorylation of the substrate is subsequently measured as radioactivity bound on a glass fiber-filter.
(§4) All kinases are pre-diluted to a 10× working concentration prior to addition into the assay. The composition of the dilution buffer for each kinase is detailed below.
(§5) In a final reaction volume of 25 μl, Flt3 (h) (5-10 mU) is incubated with 8 mM MOPS pH 7.0, 0.2 mM EDTA, 50 μM […], 10 mM MgAcetate and [γ-^33P-ATP] (specific activity approx. 500 cpm/pmol, concentration as required). The reaction is initiated by the addition of the MgATP mix. After incubation for 40 minutes at room temperature, the reaction is stopped by the addition of 5 μl of a 3% phosphoric acid solution. 10 μl of the reaction is then spotted onto a P30 filtermat and washed three times for 5 minutes in 75 mM phosphoric acid and once in methanol prior to drying and scintillation counting.

[4] = biological target: Abl (h) (Homo sapiens, UniProt P00519); assay: Abl human kinase assay (glass-fiber filter); conditions: test concentration of 10^−6M; for inhibition at 1 µM: read-out: C1 score (inhibition of Abl human)
Procedure: as §3, §4
(specific activity approx. 500 cpm/pmol, concentration as required). The reaction is initiated by the addition of the MgATP mix. After incubation for 40 minutes at room temperature, the reaction is stopped by the addition of 5 μl of a 3% phosphoric acid solution. 10 μl of the reaction is then spotted onto a P30 filtermat and washed three times for 5 minutes in 75 mM phosphoric acid and once in methanol prior to drying and scintillation counting.

[5] = biological target: Fes (h) (Homo sapiens, UniProt P07332); assay: Fes human kinase assay (glass-fiber filter); conditions: test concentration of 10^−6M; for inhibition at 1 µM: read-out: C4 score (inhibition of Fes human)
Procedure: as §3, §4
(§6) In a final reaction volume of 25 μl, Fes (h) (5-10 mU) is incubated with 8 mM MOPS pH 7.0, 0.2 mM EDTA, 0.1 mg/ml poly(Glu, Tyr) 4:1, 10 mM MgAcetate and [γ-^33P-ATP] (specific activity approx. 500 cpm/pmol, concentration as required). The reaction is initiated by the addition of the MgATP mix. After incubation for 40 minutes at room temperature, the reaction is stopped by the addition of 5 μl of a 3% phosphoric acid solution. 10 μl of the reaction is then spotted onto a Filtermat A and washed three times for 5 minutes in 75 mM phosphoric acid and once in methanol prior to drying and scintillation counting.

[6] = biological target: Yes (h) (Homo sapiens, UniProt P07947); assay: Yes human kinase assay (glass-fiber filter); conditions: test concentration of 10^−6M; for inhibition at 1 µM: read-out: C11 score (inhibition of Yes human)
Procedure: as §3, §4
as §6, with “Yes” for “Fes”, “[…],” for “cpm/pmol,”

[7] = biological target: Lyn (h) (Homo sapiens, UniProt P07948); assay: Lyn human kinase assay (glass-fiber filter); conditions: test concentration of 10^−6M; for inhibition at 1 µM: read-out: C10 score (inhibition of Lyn human)
Procedure: as §3, §4
as §6, with “[…]” for “μl, Fes”, “50” for “8”, “Tris” for “MOPS”, “7.5, 0.1” for “7.0, 0.2”, “EGTA, 0.1 mM Na3VO4, 0.1% O-mercaptoethanol,” for “EDTA,”, “Filtennat” for “Filtermat”

[8] = biological target: Fms (h) (Homo sapiens, UniProt P07333); assay: Fms human kinase assay (glass-fiber filter); conditions: test concentration of 10^−6M; read-out: C7 score (inhibition of Fms human)
Procedure: as §2, §3, §4
as §5, with “μl, Fms” for “μl, Flt3”, “EDTA, 250” for “EDTA, 50”

[9] = biological target: GSK3B (h) (Homo sapiens, UniProt P49841); assay: GSK3β human kinase assay (glass-fiber filter); conditions: test concentration of 10^−6M; for inhibition at 1 µM: read-out: C8 score (inhibition of GSK3β human)
Procedure: as §2, §3, §4
In a final reaction volume of 25 μl, GSK3B (h) (5-10 mU) is incubated with 8 mM MOPS pH 7.0, 0.2 mM EDTA, 20 μM […](p)EDEEE (phospho GS2 peptide), 10 mM MgAcetate and [γ-^33P-ATP] (specific activity approx. 500 cpm/pmol, concentration as required). The reaction is initiated by the addition of the MgATP mix. After incubation for 40 minutes at room temperature, the reaction is stopped by the addition of 5 μl of a 3% phosphoric acid solution. 10 μl of the reaction is then spotted onto a P30 filtermat and washed three times for 5 minutes in 50 mM phosphoric acid and once in methanol prior to drying and scintillation counting.

[10] = biological target: EGFR (h) (Homo sapiens, UniProt P00533); assay: EGFR human kinase assay (glass-fiber filter); conditions: test concentration of 10^−6M; for inhibition at 1 µM: read-out: C4 score (inhibition of EGFR human)
Procedure: as §3, §4
as §6, with “EGFR” for “Fes”, “EDTA, 10 mM MnCl2,” for “EDTA,”

Chain of Lck (h) (P06239 whole entry): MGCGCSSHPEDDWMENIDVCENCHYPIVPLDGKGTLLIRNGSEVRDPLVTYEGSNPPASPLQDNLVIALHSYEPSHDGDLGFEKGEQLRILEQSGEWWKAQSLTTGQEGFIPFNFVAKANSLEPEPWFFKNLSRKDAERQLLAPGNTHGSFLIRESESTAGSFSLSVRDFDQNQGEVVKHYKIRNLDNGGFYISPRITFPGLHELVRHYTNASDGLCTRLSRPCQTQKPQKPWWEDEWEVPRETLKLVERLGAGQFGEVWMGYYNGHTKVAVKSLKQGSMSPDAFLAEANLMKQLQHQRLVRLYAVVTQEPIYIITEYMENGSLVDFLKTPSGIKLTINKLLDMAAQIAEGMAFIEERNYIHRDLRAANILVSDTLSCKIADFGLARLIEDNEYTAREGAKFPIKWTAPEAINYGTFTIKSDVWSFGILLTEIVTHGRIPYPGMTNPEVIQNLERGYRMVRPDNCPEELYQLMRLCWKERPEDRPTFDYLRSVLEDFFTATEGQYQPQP
Chain of Abl (h) (P00519 whole entry): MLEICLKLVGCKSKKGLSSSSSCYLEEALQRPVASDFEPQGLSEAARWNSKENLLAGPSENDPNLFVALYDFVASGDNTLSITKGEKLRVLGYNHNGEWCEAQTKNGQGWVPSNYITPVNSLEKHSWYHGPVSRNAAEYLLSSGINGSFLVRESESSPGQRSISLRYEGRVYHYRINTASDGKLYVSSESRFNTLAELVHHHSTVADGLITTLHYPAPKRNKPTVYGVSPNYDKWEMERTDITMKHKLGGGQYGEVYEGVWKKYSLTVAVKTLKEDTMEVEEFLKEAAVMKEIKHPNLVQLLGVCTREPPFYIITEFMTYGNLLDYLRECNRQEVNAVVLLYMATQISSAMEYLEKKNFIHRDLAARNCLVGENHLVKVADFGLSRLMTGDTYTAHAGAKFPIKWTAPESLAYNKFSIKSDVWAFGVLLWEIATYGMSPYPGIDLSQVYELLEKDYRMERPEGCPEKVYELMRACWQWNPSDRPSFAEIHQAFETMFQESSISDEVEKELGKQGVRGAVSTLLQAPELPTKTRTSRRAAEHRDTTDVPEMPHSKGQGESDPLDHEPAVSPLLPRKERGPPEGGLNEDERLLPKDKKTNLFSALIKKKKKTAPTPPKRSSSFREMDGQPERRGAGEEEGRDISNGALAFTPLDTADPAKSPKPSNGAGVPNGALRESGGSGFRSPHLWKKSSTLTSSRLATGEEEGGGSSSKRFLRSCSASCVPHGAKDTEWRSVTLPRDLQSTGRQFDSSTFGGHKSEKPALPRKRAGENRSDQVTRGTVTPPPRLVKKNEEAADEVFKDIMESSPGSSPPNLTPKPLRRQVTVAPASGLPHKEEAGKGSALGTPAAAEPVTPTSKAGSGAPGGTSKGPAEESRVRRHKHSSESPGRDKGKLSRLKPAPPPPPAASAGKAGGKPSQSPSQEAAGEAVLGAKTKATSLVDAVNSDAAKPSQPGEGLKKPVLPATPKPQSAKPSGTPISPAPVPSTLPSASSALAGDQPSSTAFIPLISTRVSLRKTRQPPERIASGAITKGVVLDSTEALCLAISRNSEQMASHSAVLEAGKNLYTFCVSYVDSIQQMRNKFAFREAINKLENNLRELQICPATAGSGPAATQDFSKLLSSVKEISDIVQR
Chain of Yes (h) (P07947 whole entry): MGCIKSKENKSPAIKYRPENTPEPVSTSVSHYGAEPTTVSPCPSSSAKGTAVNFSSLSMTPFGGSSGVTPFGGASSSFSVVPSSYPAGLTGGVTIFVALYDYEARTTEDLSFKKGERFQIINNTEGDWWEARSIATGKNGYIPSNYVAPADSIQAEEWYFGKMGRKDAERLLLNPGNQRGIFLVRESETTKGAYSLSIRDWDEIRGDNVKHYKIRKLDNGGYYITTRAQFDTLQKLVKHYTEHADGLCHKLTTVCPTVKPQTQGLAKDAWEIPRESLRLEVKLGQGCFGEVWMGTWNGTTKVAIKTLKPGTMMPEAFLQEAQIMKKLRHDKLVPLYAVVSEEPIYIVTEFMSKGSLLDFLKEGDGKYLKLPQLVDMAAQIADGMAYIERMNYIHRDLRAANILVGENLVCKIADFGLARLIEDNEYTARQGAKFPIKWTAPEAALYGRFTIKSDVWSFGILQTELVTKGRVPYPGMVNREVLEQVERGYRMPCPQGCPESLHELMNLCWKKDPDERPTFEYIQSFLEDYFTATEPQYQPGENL
Chain of EGFR (h) (P00533 25-1210): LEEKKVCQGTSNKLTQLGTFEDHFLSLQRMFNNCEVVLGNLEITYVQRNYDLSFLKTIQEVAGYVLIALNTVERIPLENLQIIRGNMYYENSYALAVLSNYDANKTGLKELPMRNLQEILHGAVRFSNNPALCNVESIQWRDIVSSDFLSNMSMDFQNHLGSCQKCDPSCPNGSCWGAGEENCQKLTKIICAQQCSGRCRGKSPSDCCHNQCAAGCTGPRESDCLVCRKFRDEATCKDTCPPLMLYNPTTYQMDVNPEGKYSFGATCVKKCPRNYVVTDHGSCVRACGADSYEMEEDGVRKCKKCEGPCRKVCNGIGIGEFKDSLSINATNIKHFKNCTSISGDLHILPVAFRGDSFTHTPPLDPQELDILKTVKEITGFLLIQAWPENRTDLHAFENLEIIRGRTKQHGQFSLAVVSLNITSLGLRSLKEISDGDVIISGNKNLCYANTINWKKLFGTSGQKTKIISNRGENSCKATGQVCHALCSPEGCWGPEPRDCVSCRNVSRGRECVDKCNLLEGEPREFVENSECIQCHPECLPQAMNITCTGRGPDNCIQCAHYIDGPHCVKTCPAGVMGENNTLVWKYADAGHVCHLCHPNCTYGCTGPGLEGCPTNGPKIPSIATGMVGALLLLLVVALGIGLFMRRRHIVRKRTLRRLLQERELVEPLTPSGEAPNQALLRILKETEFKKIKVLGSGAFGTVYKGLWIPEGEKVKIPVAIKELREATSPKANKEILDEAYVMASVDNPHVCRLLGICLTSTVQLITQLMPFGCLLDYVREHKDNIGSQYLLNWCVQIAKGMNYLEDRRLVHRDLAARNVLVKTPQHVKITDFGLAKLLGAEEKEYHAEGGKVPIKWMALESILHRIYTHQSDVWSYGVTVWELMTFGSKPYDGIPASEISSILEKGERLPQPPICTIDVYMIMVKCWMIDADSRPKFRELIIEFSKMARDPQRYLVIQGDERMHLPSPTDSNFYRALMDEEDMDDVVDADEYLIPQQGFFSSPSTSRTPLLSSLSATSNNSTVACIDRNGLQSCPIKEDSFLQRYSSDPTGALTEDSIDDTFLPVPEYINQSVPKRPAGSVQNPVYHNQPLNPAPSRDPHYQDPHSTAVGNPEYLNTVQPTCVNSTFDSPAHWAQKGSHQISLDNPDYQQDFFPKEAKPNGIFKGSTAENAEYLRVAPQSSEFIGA
Chain of cSRC (h) (P12931 whole entry): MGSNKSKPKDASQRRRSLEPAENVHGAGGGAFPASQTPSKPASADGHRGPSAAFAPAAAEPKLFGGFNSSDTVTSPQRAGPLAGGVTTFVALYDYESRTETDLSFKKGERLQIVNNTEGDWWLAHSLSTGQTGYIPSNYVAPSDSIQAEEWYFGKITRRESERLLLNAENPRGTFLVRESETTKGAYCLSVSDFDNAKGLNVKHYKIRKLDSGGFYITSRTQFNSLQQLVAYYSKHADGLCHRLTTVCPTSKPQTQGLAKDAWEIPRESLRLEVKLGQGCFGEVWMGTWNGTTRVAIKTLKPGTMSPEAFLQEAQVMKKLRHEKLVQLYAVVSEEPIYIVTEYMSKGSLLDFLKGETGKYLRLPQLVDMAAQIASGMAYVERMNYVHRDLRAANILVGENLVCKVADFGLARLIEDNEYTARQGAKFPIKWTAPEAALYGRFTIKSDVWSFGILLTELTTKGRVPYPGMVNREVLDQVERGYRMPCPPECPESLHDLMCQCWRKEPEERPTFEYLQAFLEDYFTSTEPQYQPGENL
Chain of GSK3B (h) (P49841 whole entry): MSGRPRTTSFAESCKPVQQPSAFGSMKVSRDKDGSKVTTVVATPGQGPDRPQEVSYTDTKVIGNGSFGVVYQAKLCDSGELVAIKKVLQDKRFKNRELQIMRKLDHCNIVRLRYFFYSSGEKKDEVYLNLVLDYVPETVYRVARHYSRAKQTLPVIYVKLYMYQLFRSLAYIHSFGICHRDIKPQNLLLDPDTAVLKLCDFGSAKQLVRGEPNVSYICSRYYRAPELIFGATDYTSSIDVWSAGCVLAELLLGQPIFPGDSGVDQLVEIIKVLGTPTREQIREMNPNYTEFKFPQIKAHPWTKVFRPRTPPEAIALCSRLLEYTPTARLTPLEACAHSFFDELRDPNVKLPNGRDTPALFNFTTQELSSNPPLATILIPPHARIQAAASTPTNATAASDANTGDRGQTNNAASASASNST
Chain of Lyn (h) (P07948 whole entry): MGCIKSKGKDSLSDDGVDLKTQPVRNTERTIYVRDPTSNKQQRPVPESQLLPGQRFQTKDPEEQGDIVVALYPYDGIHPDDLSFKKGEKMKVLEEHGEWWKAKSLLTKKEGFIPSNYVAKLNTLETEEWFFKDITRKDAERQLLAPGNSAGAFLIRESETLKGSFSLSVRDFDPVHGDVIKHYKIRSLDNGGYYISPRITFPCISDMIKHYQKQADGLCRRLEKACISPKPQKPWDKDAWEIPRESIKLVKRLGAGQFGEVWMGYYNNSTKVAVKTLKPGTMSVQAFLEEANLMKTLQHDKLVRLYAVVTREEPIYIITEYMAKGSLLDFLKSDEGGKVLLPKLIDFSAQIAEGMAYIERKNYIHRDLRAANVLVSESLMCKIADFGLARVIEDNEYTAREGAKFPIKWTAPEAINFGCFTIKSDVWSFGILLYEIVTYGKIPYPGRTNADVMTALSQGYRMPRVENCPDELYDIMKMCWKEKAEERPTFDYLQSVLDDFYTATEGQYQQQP

inhibition at 1 µM [1]	inhibition at 1 µM [2]	inhibition at 1 µM [3]	inhibition at 1 µM [4]	inhibition at 1 µM [5]	inhibition at 1 µM [6]	inhibition at 1 µM [7]	inhibition at 1 µM [8]	inhibition at 1 µM [9]	inhibition at 1 µM [10]	Structure (SMILES)	C3 score (inhibition of cSRC human) [1]	C9 score (inhibition of Lck human) [2]	C4 score (inhibition of EGFR human) [10]	C6 score (inhibition of Flt3 human) [3]	C4 score (inhibition of Fes human) [5]	C11 score (inhibition of Yes human) [6]	C10 score (inhibition of Lyn human) [7]	C8 score (inhibition of GSK3β human) [9]	C1 score (inhibition of Abl human) [4]
30 to 60%	30 to 60%	> 80%	10 to 30%	10 to 30%	30 to 60%	10 to 30%	30 to 60%	60 to 80%		N#Cc1cnc2nc1Nc1cccc(c1)OCCCCOc1cccc(c1)N2 [Compound 2, 14,19-dioxa-2,4,8,26-tetraazatetracyclo[18.3.1.1˜3,7˜.1˜9,13˜]hexacosa-1(24),3,5,7(26),9,11,13(25),20,22-nonaene-6-carbonitrile]									
										COc1ccc2cc1OCCCNC(=O)[C@@H]1CCCN1Cc1cc(F)c(Cl)cc1Nc1nc(ncc1C#N)N2 [Compound 6, 21,17-metheno-15,11-nitrilo-1H,16H-pyrrolo[2,1-s][13,1,5,7,17,20]benzoxapentaazacyclotricosine-12-carbonitrile, 8-chloro-7-fluoro-2,3,5,10,23,24,25,26,27,27a-decahydro-20-methoxy-27-oxo-, (27aS)-]	1 (Score 1=10-30% inhibition)	2 (Score 2=30-60% inhibition)	1 (Score 1=10-30% inhibition)	2 (Score 2=30-60% inhibition)	1 (Score 1=10-30% inhibition)	2 (Score 2=30-60% inhibition)	1 (Score 1=10-30% inhibition)	2 (Score 2=30-60% inhibition)	
10 to 30%	30 to 60%	30 to 60%	10 to 30%		30 to 60%	10 to 30%	10 to 30%	10 to 30%	10 to 30%	O=C1NCCCCOc2cccc(c2)Nc2ccnc(n2)Nc2cccc1c2 [Compound 19, 14-oxa-2,4,8,19,27-pentaazatetracyclo[19.3.1.1~3,7~.1~9,13~]heptacosa-1(25),3,5,7(27),9,11,13(26),21,23-nonaen-20-one]									
	30 to 60%	60 to 80%	10 to 30%	10 to 30%	10 to 30%	10 to 30%	30 to 60%	30 to 60%	10 to 30%	N#Cc1cnc2nc1Nc1cccc(c1)OCC(=O)NCCOc1cccc(c1)N2 [Compound 27, 14,20-dioxa-2,4,8,17,27-pentaazatetracyclo[19.3.1.1~3,7~.1~9,13~]heptacosa-1(25),3,5,7(27),9,11,13(26),21,23-nonaene-6-carbonitrile, 16-oxo-]									
										COc1ccc2cc1OCCNC(=O)[C@@H]1CCCN1Cc1cc(F)c(Cl)cc1Nc1nc(ncc1C#N)N2 [Compound 31, 21,17-metheno-15,11-nitrilo-16H-pyrrolo[2,1-r][13,1,5,7,16,19]benzoxapentaazacyclodocosine-12-carbonitrile, 8-chloro-7-fluoro-1,2,3,5,10,23,24,25,26,26a-decahydro-20-methoxy-26-oxo-, (26aS)-]	2 (Score 2=30-60% inhibition)	3 (Score 3=60-80% inhibition)	2 (Score 2=30-60% inhibition)	2 (Score 2=30-60% inhibition)		4 (Score 4=>80% inhibition)	4 (Score 4=>80% inhibition)	1 (Score 1=10-30% inhibition)	2 (Score 2=30-60% inhibition)
